Assay results reported in patent US20260132129A1 (Genesis Therapeutics, Inc., priority 2022, published 2026).

Target: T1, PI3Kα H1047R (T47D cells) (Homo sapiens, UniProt P42336, H1047R)
T1 construct: endogenous in cells; host or cells: T47D cells
Assay: PI3Kα cellular assay: pAKT HTRF in T47D cells after EGF stimulation
Format: cell-based
Conditions: for IC50: T47D cells (PI3Kα H1047R), pAKT S473 HTRF
Method in brief: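 T47D cells (PIK3CA H1047R) serum-starved 16 h, then treated 1 h at 37 °C with compound (10,000 nM top, 3-fold steps to 0.5 nM). After 10 min stimulation with 20 ng/mL EGF, cells were lysed and pAKT measured by HTRF.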

[1] = selectivity T47D (H1047R) over SKBR3 (WT), pAKT HTRF
[2] = 1 hr compound, 20 ng/ml EGF 10 min
[3] = selectivity of T47D (H1047R) over SKBR3 (WT) pAKT IC50

T1 sequence (P42336 whole entry H1047R): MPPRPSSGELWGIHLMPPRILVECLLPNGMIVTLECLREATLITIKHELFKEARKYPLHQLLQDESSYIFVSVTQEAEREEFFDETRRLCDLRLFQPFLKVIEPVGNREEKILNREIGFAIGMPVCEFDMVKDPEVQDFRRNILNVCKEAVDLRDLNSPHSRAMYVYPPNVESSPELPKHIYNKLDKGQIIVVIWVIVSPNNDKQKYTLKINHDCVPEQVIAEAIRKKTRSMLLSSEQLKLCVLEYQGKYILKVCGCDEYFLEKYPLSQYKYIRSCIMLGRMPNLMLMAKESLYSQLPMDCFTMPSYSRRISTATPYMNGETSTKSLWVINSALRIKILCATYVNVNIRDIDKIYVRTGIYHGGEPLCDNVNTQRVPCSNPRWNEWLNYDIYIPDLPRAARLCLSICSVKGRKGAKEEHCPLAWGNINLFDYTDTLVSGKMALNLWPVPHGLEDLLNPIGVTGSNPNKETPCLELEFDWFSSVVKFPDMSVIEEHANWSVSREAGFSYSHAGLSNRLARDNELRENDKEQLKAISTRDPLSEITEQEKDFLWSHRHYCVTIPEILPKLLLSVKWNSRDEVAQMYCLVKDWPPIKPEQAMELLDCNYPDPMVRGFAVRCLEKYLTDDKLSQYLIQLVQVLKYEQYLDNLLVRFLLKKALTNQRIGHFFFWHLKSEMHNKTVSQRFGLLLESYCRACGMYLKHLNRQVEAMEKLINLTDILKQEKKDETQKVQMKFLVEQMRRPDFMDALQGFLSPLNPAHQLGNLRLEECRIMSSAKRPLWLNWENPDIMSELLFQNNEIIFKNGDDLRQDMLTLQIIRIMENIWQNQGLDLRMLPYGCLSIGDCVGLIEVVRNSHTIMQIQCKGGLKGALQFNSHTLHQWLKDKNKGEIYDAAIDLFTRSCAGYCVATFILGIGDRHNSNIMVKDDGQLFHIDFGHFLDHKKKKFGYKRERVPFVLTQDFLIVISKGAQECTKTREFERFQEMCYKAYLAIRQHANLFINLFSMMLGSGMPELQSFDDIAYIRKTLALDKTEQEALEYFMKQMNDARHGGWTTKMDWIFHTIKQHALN
T1 sequence (P27986 whole entry partner): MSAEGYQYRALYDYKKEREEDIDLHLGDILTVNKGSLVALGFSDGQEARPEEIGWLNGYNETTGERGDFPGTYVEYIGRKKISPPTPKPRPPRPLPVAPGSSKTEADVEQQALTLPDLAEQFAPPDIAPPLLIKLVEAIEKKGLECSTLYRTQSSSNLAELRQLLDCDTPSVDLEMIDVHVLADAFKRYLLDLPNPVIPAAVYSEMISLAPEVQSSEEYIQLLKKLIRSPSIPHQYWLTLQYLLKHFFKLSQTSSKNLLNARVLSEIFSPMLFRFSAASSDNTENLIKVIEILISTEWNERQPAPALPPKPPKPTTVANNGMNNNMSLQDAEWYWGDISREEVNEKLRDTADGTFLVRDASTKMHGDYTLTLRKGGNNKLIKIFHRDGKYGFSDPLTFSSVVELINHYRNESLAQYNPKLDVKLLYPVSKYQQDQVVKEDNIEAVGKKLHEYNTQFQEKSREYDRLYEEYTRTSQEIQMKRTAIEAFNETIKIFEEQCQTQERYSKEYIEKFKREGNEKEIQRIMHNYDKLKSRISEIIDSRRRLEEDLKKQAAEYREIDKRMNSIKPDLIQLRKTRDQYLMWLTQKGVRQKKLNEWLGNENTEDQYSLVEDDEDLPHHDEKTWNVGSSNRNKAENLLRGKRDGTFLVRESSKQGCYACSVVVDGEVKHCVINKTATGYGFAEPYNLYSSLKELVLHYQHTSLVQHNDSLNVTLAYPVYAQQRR

SMILES | IC50 (EGF stimulation) [nM] | T47D pAKT S473 HTRF IC50 (H1047R): T47D (H1047R) selectivity over SKBR3 (WT) [1] | IC50 [2] [nM] | T47D pAKT S473 HTRF IC50 (H1047R): T47D (H1047R) selectivity over SKBR3 (WT) [3]
Cc1cc(C(C)Nc2ccccc2C(=O)O)c2nc(-c3cnc4c(c3)c(C)c(C)n4C)c(C)c(=O)n2c1 (centres unmarked) [Compound 1410, 2-((1-(3,7-dimethyl-4-oxo-2-(1,2,3-trimethyl-1H-pyrrolo[2,3-b]pyridin-5-yl)-4H-pyrido[1,2-a]pyrimidin-9-yl)ethyl)amino)benzoic acid] | < 100 | A (A denotes >20-fold) | – | –
Cc1cc(C(C)Nc2ccccc2C(=O)O)c2nc(-c3cnc(C4CCN(C(=O)C5CC5)CC4)nc3)c(C)c(=O)n2c1 (centres unmarked) [Compound 1336] | – | C (C denotes ≤5-fold) | – | –
Cc1cc([C@H](C)Nc2c(F)cccc2C(=O)O)c2nc(N3CCOCC3)cc(=O)n2c1 [Compound 334] | – | C (C denotes ≤5-fold) | > 2000 | –
Cc1cc([C@@H](C)Nc2ccccc2C(N)=O)c2nc(N3Cc4ccccc4C3)cc(=O)n2c1 (single isomer, unassigned) [Compound 620] | – | A (A denotes >20-fold) | < 100 | –
Cc1cc([C@@H](C)Nc2ccccc2C(=O)O)c2nc(-c3ccc(C4CC4)nc3)cc(=O)n2c1 [Compound 1111] | < 100 | A (A denotes >20-fold) | – | –
Cc1cc([C@H](C)Nc2ccccc2C(=O)O)c2nc(N3CCC(C)(C)CC3)cc(=O)n2c1 [Compound 432] | – | C (C denotes ≤5-fold) | – | –
Cc1cc([C@@H](C)Nc2ccccc2C(=O)O)c2nc(-c3ccc(C4CCC(C(=O)C5CC5)CC4)c(F)c3)c(C)c(=O)n2c1 (some centres unmarked) [Compound 1318] | – | C (C denotes ≤5-fold) | – | –
Cc1cc([C@@H](C)Nc2ccccc2C(=O)O)c2nc(-c3ccc4[nH]c(=O)oc4c3)cc(=O)n2c1 [Compound 541] | – | A (A denotes >20-fold) | 100 to 500 | –
Cc1cc(C(C)Nc2ccccc2C(=O)O)c2nc(-c3ccc4c(c3)c(N(C)C)nn4C)cc(=O)n2c1 (centres unmarked) [Compound 457] | – | A (A denotes >20-fold) | < 100 | –
Cc1cc([C@@H](C)Nc2ccccc2C(=O)O)c2nc(-c3cnc4c(c3)c(C)nn4C)c(C)c(=O)n2c1 [Compound 762] | < 100 | – | – | A (A denotes >20-fold)
Cc1cc(C(C)Nc2ccccc2C(=O)O)c2nc(-c3cnc4c(c3)c(C)nn4C)c(C)c(=O)n2c1 (centres unmarked) [Compound 1411, 2-((1-(2-(1,3-dimethyl-1H-pyrazolo[3,4-b]pyridin-5-yl)-3,7-dimethyl-4-oxo-4H-pyrido[1,2-a]pyrimidin-9-yl)ethyl)amino)benzoic acid] | < 100 | A (A denotes >20-fold) | – | –
Cc1cc(C(C)Nc2ccccc2C(=O)O)c2nc(N3CCN(C(=O)CN)CC3)cc(=O)n2c1 (centres unmarked) [Compound 527] | – | C (C denotes ≤5-fold) | > 2000 | –
Cc1cc(C(C)Nc2ccccc2C(=O)O)c2nc(C3CCN(CC(N)=O)CC3)cc(=O)n2c1 (centres unmarked) [Compound 509] | – | C (C denotes ≤5-fold) | > 2000 | –
Cc1cc([C@@H](C)Nc2ccccc2C(=O)O)c2nc(-c3cnc(C4CCOCC4)nc3)c(C)c(=O)n2c1 [Compound 1296] | 100 to 500 | A (A denotes >20-fold) | – | –
Cc1cc(C(C)Nc2cc(C(F)(F)F)ccc2C(=O)O)c2nc(N3CCOCC3)c(C)c(=O)n2c1 (centres unmarked) [Compound 328] | – | C (C denotes ≤5-fold) | > 2000 | –
Cc1cc([C@H](C)Nc2ccccc2S(=O)(=O)O)c2nc(-c3cccc(C4CC4)c3)cc(=O)n2c1 [Compound 1327] | – | B (B denotes 20-fold≥value>5-fold) | – | –
Cc1cc([C@H](C)Nc2ccccc2C(=O)O)c2nc(N3CCOC[C@H]3C)cc(=O)n2c1 [Compound 297] | – | A (A denotes >20-fold) | 100 to 500 | –
Cc1cc([C@@H](C)Nc2ccccc2C(N)=O)c2nc(N3CCOCC3)cc(=O)n2c1 [Compound 146] | – | C (C denotes ≤5-fold) | > 2000 | –
Cc1cc([C@@H](C)Nc2ccccc2S(N)(=O)=O)c2nc(N3Cc4ccccc4C3)cc(=O)n2c1 [Compound 605, (R)-2-((1-(2-(isoindolin-2-yl)-7-methyl-4-oxo-4H-pyrido[1,2-a]pyrimidin-9-yl)ethyl)amino)benzenesulfonamide] | – | A (A denotes >20-fold) | < 100 | –
Cc1cc([C@@H](C)Nc2ccccc2C(=O)O)c2nc(N3CCCCC3)cc(=O)n2c1 [Compound 7] | – | A (A denotes >20-fold) | 100 to 500 | –
Cc1cc(C(C)Nc2cccc3onc(O)c23)c2nc(-c3cccc(F)c3)c(C)c(=O)n2c1 (centres unmarked) [Compound 1356] | – | A (A denotes >20-fold) | – | –

SMILES | IC50 (EGF stimulation) [nM] | T47D pAKT S473 HTRF IC50 (H1047R): T47D (H1047R) selectivity over SKBR3 (WT) [1] | IC50 [2] [nM] | T47D pAKT S473 HTRF IC50 (H1047R): T47D (H1047R) selectivity over SKBR3 (WT) [3]
Cc1cc([C@H](C)Nc2ccccc2C(=O)O)c2nc(-c3ccccc3)cc(=O)n2c1 [Compound 629] | – | A (A denotes >20-fold) | < 100 | –
Cc1cc([C@@H](C)Nc2cc(F)cc(F)c2)c2nc(N3CCOCC3)cc(=O)n2c1 [Compound 263] | – | C (C denotes ≤5-fold) | 500 to 2000 | –
Cc1cc([C@@H](C)Nc2c(C)cccc2C(=O)O)c2nc(N3CCOCC3)cc(=O)n2c1 [Compound 335] | – | C (C denotes ≤5-fold) | > 2000 | –
Cc1cc(C(C)Nc2ccccc2S(N)(=O)=O)c2nc(-c3ccc(C4CCNCC4)nc3)c(C)c(=O)n2c1 (centres unmarked) [Compound 1304] | 500 to 2000 | B (B denotes 20-fold≥value>5-fold) | – | –
Cc1cc([C@@H](C)Nc2ccccc2S(N)(=O)=O)c2nc(C3CCN(CC(C)C)CC3)c(C)c(=O)n2c1 [Compound 1287] | – | C (C denotes ≤5-fold) | – | –
Cc1cc(C(C)Nc2ccccc2C(=O)O)c2nc(-c3ccc4c(c3)c(C(F)F)nn4C)cc(=O)n2c1 (centres unmarked) [Compound 769] | 100 to 500 | – | – | A (A denotes >20-fold)
Cc1cc(C(C)Nc2ccccc2C(=O)O)c2nc(C3CCCN(CC(F)F)C3)c(C)c(=O)n2c1 (centres unmarked) [Compound 1293] | 100 to 500 | A (A denotes >20-fold) | – | –
CCc1c(-c2ccc3c(c2)c(C)cn3C)nc2c(C(C)Nc3ccccc3C(=O)O)cc(C)cn2c1=O (centres unmarked) [Compound 1019] | 100 to 500 | – | – | A (A denotes >20-fold)
Cc1cc([C@H](C)Nc2ccccc2C(=O)O)c2nc(-c3ccc(-c4ccc5c(c4)CCO5)c(F)c3)c(C)c(=O)n2c1 [Compound 1269] | > 2000 | C (C denotes ≤5-fold) | – | –
Cc1cc([C@@H](C)Nc2cccc3c2OCC(=O)N3)c2nc(N3CCOCC3)cc(=O)n2c1 [Compound 685] | > 2000 | – | – | C (C denotes ≤5-fold)
Cc1cc([C@@H](C)Nc2ccccc2C(=O)O)c2nc(C3C[C@@H](C)O[C@@H](C)C3)cc(=O)n2c1 (some centres unmarked) [Compound 924] | 100 to 500 | – | – | A (A denotes >20-fold)
Cc1cc([C@@H](C)N(C)c2ccccc2C(=O)O)c2nc(N3CCOCC3)cc(=O)n2c1 [Compound 309] | – | C (C denotes ≤5-fold) | > 2000 | –
Cc1cc([C@@H](C)Nc2ccccc2C(=O)O)c2nc([C@H]3CCOC3)cc(=O)n2c1 [Compound 537] | – | B (B denotes 20-fold≥value>5-fold) | 500 to 2000 | –
Cc1cc(C(C)Nc2ccccc2C(=O)O)c2nc(N3CCC(NS(C)(=O)=O)CC3)cc(=O)n2c1 (centres unmarked) [Compound 433] | – | C (C denotes ≤5-fold) | – | –
CCc1ccn2c(=O)c(C)c(-c3cccc(F)c3)nc2c1[C@H](C)Nc1ccccc1C(=O)O [Compound 1326] | < 100 | A (A denotes >20-fold) | – | –
Cc1cc(C(C)Nc2ccccc2C(=O)O)c2nc(-c3ccncc3)cc(=O)n2c1 (single isomer, unassigned) [Compound 269] | – | A (A denotes >20-fold) | < 100 | –
Cc1cc([C@@H](C)Nc2ccccc2C(=O)O)c2nc(-c3ccc4c(c3)c(C)c(C)n4C)cc(=O)n2c1 [Compound 775] | < 100 | – | – | A (A denotes >20-fold)
C=CC(=O)Nc1ccc(C(=O)O)c(N[C@H](C)c2cc(C)cn3c(=O)c(C)c(N4Cc5ccccc5C4)nc23)c1 [Compound 1121] | > 2000 | C (C denotes ≤5-fold) | – | –
Cc1cc(C(C)Nc2ccccc2C(=O)O)c2nc(N3CCC4(CC3)CNC4=O)cc(=O)n2c1 (centres unmarked) [Compound 491] | – | C (C denotes ≤5-fold) | > 2000 | –
Cc1cc(C(C)Nc2ccccc2C(=O)O)c2nc(N3C[C@@H](C)O[C@@H](C)C3)cc(=O)n2c1 (some centres unmarked) [Compound 315] | – | B (B denotes 20-fold≥value>5-fold) | 500 to 2000 | –
Cc1cc(C(C)Nc2ccccc2C(=O)O)c2nc(-c3ccc4[nH]cnc4c3)cc(=O)n2c1 (centres unmarked) [Compound 515] | – | B (B denotes 20-fold≥value>5-fold) | 500 to 2000 | –
